Reference: patent US20100120858A1, “Piperidine Derivatives” (Pfizer Inc., priority 2006, published 2010)
Structures can show the parent of a compound that is named as a salt.

Experiments:
[1] = molecular target: human norepinephrine transporter (Homo sapiens, UniProt P23975); test: Human norepinephrine (hNET) receptor binding, [125I]-RTI-55; conditions: membranes of HEK-293 cells transfected with human norepinephrine transporter cDNA; 50 pM [125I]-RTI-55; IC50 converted by Cheng-Prusoff
Procedure: Cell pastes of human embryonic kidney 293 (HEK-293) cells transfected with a human norepinephrine transporter cDNA were prepared. The cell pastes were resuspended in 400 to 700 mL of Krebs-N-2-hydroxyethylpiperazine-N′-2-ethanesulfonic acid (HEPES) assay buffer (25 mM HEPES, 122 mM NaCl, 3 mM KCl, 1.2 mM MgSO4, 1.3 mM CaCl2, and 11 mM glucose, pH 7.4) with a Polytron homogenizer at setting 7 for 30 seconds. Aliquots of membranes (5 mg/mL protein) were stored in liquid nitrogen until used.
The binding assay was set up in Beckman deep-well polypropylene plates with a total volume of 250 μL containing: test compound (concentration of 10^−5M to 10^−12M), cell membranes, and 50 pM [^125I]-RTI-55 ([^125I]-3 beta-(4-iodophenyl)tropan-2 beta-carboxylic acid methyl ester) (Perkin Elmer, NEX-272; specific activity 2200 Ci/mmol). The reaction was incubated by gentle agitation for 90 minutes at room temperature and was terminated by filtration through Whatman GF/C filter plates using a Brandel 96-well plate harvester. Scintillation fluid (100 μL) was added to each well, and bound [^125I]-RTI-55 was determined using a Wallac Trilux Beta Plate Counter. Test compounds were run in duplicate, and specific binding was defined as the difference between binding in the presence and absence of 10 μM desipramine.
Excel and GraphPad Prism software were used for data calculation and analysis. IC50 values were converted to Ki values using the Cheng-Prusoff equation. The Ki values (nM) for the hNET are reported below in Table 13.

[2] = molecular target: human serotonin transporter (Homo sapiens, UniProt P31645); test: Human serotonin (hSERT) receptor binding, [125I]-RTI-55; conditions: membranes of HEK-293 cells transfected with human serotonin transporter cDNA, IC50 converted by Cheng-Prusoff
Chain of human serotonin transporter (P31645 whole entry): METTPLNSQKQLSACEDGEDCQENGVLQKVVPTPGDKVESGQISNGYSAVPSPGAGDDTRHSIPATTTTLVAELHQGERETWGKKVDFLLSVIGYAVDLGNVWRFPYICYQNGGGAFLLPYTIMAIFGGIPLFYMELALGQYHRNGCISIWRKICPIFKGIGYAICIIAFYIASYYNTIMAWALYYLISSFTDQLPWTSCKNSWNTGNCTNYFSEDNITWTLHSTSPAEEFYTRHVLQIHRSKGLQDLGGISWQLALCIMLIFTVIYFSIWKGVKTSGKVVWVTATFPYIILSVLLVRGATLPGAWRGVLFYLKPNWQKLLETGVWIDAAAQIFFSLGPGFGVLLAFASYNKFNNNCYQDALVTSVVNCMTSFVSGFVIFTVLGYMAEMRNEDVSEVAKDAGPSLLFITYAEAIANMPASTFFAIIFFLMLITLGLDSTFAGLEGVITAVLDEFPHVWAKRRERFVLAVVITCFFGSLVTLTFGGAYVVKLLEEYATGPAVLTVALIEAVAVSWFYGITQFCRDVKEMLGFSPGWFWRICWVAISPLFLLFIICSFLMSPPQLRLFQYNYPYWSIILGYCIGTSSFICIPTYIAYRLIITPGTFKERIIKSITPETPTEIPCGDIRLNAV
Procedure: Cell pastes of HEK-293 cells transfected with a human serotonin transporter cDNA were prepared. The cell pastes were resuspended in 400 to 700 ml of Krebs-HEPES assay buffer (25 mM HEPES, 122 mM NaCl, 3 mM KCl, 1.2 mM MgSO4, 1.3 mM CaCl2, and 11 mM glucose, pH 7.4) with a Polytron homogenizer at Setting 7 for 30 seconds. Aliquots of membranes (˜2.5 mg/mL protein) were stored in liquid nitrogen until used.
Assays were set up in FlashPlates pre-coated with 0.1% polyethyleneimine (PEI) in a total volume of 250 μL containing: test compound (concentration 10^−5M to 10^−12M), cell membranes, and […] [^125I]-RTI-55 (Perkin Elmer, NEX-272; specific activity 2200 Ci/mmol). The reaction was incubated and gently agitated for 90 minutes at room temperature, and terminated by removal of assay volume. Plates were covered, and bound [^125I]-RTI-55 was determined using a Wallac Trilux Beta Plate Counter. Test compounds were run in duplicate, and specific binding was defined as the difference between binding in the presence and absence of 10 μM citalopram.
Excel and GraphPad Prism software were used for data calculation and analysis. IC50 values were converted to Ki values using the Cheng-Prusoff equation.

Chain of human norepinephrine transporter (P23975 whole entry): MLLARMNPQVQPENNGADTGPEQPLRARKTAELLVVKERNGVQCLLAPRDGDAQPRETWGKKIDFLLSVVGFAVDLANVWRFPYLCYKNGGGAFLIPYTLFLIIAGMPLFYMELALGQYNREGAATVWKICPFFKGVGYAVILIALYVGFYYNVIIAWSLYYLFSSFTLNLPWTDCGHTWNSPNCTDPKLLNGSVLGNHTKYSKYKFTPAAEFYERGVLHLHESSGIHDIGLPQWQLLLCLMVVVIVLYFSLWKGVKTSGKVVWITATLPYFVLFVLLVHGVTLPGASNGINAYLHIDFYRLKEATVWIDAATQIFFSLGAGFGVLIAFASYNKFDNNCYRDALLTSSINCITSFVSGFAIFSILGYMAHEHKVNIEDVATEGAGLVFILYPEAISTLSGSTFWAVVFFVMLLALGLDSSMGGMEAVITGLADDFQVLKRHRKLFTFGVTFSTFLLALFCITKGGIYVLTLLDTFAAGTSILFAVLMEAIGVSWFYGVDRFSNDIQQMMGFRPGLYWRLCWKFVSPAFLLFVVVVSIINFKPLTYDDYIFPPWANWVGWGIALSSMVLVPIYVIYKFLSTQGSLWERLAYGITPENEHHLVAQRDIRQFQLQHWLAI

Row | Structure (SMILES) | Ki [1] [nM] | Ki [2] [nM]
1 | CC[C@H](Oc1cccnc1OCC(C)C)[C@H]1CCCNC1 [Example 87, (S,S)-2-isobutoxy-3-(1-piperidin-3-yl-propoxy)-pyridine fumaric acid] | 7 | 350
2 | N#Cc1ccc(Oc2ncccc2OC[C@H]2CCCNC2)cc1 [Example 57, (S)-4-[3-(piperidin-3-ylmethoxy)-pyridin-2-yloxy]-benzonitrile fumaric acid] | 58 | > 10000
3 | Cc1ccc(OC[C@H]2CCCNC2)c(Oc2ccc(F)cc2Cl)n1 [Example 24, (S)-2-(2-chloro-4-fluoro-phenoxy)-6-methyl-3-(piperidin-3-ylmethoxy)-pyridine fumaric acid] | 2.7 | 160
4 | CC[C@H](Oc1cccnc1Oc1ccc(F)cc1)[C@H]1CCCNC1 [Example 85, (S,S)-2-(4-fluoro-phenoxy)-3-(1-piperidin-3-yl-propoxy)-pyridine fumaric acid] | 5 | 2030
5 | CCOc1ccccc1OC(c1ccccc1)[C@H]1CCCNC1 (mixture of isomers) [Example 106, (S)-3-[(2-ethoxy-phenoxy)-(R,S)-phenyl-methyl]-piperidine fumaric acid] | 7 | 430
6 | COc1ccc(Oc2nc(C)ccc2OC[C@H]2CCCNC2)c(Cl)c1 [Example 26, (S)-2-(2-chloro-4-methoxy-phenoxy)-6-methyl-3-(piperidin-3-ylmethoxy)-pyridine fumaric acid] | 18 | 860
7 | CC(C)Oc1ncccc1OC[C@H]1CCCNC1 [Example 80, (S)-2-isopropoxy-3-(piperidin-3-ylmethoxy)-pyridine fumaric acid] | 102 | > 10000
8 | C[C@H](Oc1ccccc1OC1CCCCC1)[C@H]1CCCNC1 [Example 111, (S)-3-[(S)-1-(2-cyclohexyloxy-phenoxy)-ethyl]-piperidine oxalic acid] | 5 | 1800
9 | Fc1ccc(Oc2cccc(F)c2OC[C@H]2CCCNC2)cc1 [Example 96, (S)-3-[2-fluoro-6-(4-fluoro-phenoxy)-phenoxymethyl]-piperidine fumaric acid] | 1 | 530
10 | Cc1ccc(OC[C@H]2CCCNC2)c(Oc2ccc(C(C)C)cc2)n1 [Example 20, (S)-2-[4-(1-methyl-ethyl)-phenoxy]-6-methyl-3-(piperidin-3-ylmethoxy)-pyridine fumaric acid] | 4800 | 2400
11 | Cc1ccc(OC[C@H]2CCCNC2)c(Oc2c(Cl)cc(F)cc2Cl)n1 [Example 48, (S)-2-(2,6-dichloro-4-fluoro-phenoxy)-6-methyl-3-(piperidin-3-ylmethoxy)-pyridine hydrochloride] | 61 | > 9200
12 | Cc1ccc(OC[C@H]2CCCNC2)c(Oc2ccccc2)n1 [Example 95, (S)-6-methyl-2-phenoxy-3-(piperidin-3-ylmethoxy)-pyridine fumaric acid] | 4 | 530
13 | Fc1ccc(Oc2ncccc2OC[C@H]2CCCNC2)c(F)c1 [Example 54, (S)-2-(2,4-difluoro-phenoxy)-3-(piperidin-3-ylmethoxy)-pyridine fumaric acid] | 3 | 2700
14 | Cc1ccc(OC[C@H]2CCCNC2)c(Oc2ccccc2OC(C)C)n1 [Example 10, (S)-2-[2-(1-methyl-ethoxy)-phenoxy]-6-methyl-3-(piperidin-3-ylmethoxy)-pyridine fumaric acid] | 10.1 | 2600
15 | COc1ccccc1Oc1nc(C)ccc1OC[C@H]1CCCNC1 [Example 3, (S)-2-(2-methoxy-phenoxy)-6-methyl-3-(piperidin-3-ylmethoxy)-pyridine fumaric acid] | 2.2 | 1200
16 | CCOc1ncccc1OC[C@H]1CCCNC1 [Example 79, (S)-2-ethoxy-3-(piperidin-3-ylmethoxy)-pyridine fumaric acid] | 108 | > 10000
17 | N#Cc1ccc(Oc2ncccc2OC[C@H]2CCCNC2)cc1C#N [Example 58, (S)-4-[3-(piperidin-3-ylmethoxy)-pyridin-2-yloxy]-phthalonitrile fumaric acid] | 1200 | 3990
18 | COc1cccc(F)c1Oc1nc(C)ccc1OC[C@H]1CCCNC1 [Example 21, (S)-2-(2-fluoro-6-methoxy-phenoxy)-6-methyl-3-(piperidin-3-ylmethoxy)-pyridine fumaric acid] | 4.9 | 72
19 | Cc1ccc(Oc2ncccc2OC[C@H]2CCCNC2)cc1 [Example 52, (S)-2-(4-methyl-phenoxy)-3-(piperidin-3-ylmethoxy)-pyridine fumaric acid] | 4 | 5200
20 | COc1cc(Cl)ccc1Oc1cc(Cl)ccc1OC[C@H]1CCCNC1 [Example 34, (S)-3-[4-chloro-2-(4-chloro-2-methoxy-phenoxy)-phenoxymethyl]-piperidine fumaric acid] | 16 | 21
21 | Fc1ccc(Oc2c(F)cccc2OC[C@H]2CCCNC2)c(Cl)c1 [Example 38, (S)-3-[2-(2-chloro-4-fluoro-phenoxy)-3-fluoro-phenoxymethyl]-piperidine fumaric acid] | 3.6 | 1900
22 | CCOc1ccccc1O[C@@H](c1ccccn1)[C@H]1CCCNC1 [Example 114, 2-[{(R)-2-ethoxy-phenoxy}-(S)-piperidin-3-yl-methyl]-pyridine fumaric acid] | 7 | 3700
23 | Fc1ccc(Oc2c(F)cccc2OC[C@H]2CCCNC2)cc1 [Example 98, (S)-3-[3-fluoro-2-(4-fluoro-phenoxy)-phenoxymethyl]-piperidine trifluoroacetic acid] | 1 | 1300
24 | COCCOc1ccccc1O[C@@H](C)[C@H]1CCCNC1 [Example 113, (S)-3-{(S)-1-[2-(2-methoxy-ethoxy)-phenoxy]-ethyl}-piperidine hydrochloride] | 17 | 3600
25 | COc1ccc(Oc2ncccc2OC[C@H]2CCCNC2)cc1 [Example 51, (S)-2-(4-methoxy-phenoxy)-3-(piperidin-3-ylmethoxy)-pyridine fumaric acid] | 27 | 7300
26 | COc1ccc(F)cc1O[C@@H](c1ccccn1)[C@H]1CCCNC1 [Example 117, 2-[{(R)-5-fluoro-2-methoxy-phenoxy}-(S)-piperidin-3-yl-methyl]-pyridine fumaric acid] | 16 | 4600
27 | COCCOc1ccccc1OC(C)(C)[C@H]1CCCNC1 [Example 118, (S)-3-{1-[2-(2-methoxy-ethoxy)-phenoxy]-1-methyl-ethyl}-piperidine fumaric acid] | 38 | 2500
28 | Fc1cc(Cl)ccc1Oc1cc(Cl)ccc1OC[C@H]1CCCNC1 [Example 33, (S)-3-[4-chloro-2-(4-chloro-2-fluoro-phenoxy)-phenoxymethyl]-piperidine fumaric acid] | 32 | 36
29 | CCOc1cccc(F)c1OC[C@H]1CCCNC1 [Example 105, (S)-3-(2-ethoxy-6-fluoro-phenoxymethyl)-piperidine fumaric acid] | 32 | 2800
30 | COc1cccc(F)c1O[C@@H](c1ccccn1)[C@H]1CCCNC1 [Example 115, 2-[{(R)-2-fluoro-6-methoxy-phenoxy}-(S)-piperidin-3-yl-methyl]-pyridine fumaric acid] | 4 | 5020
